Among the data in ChEMBL document CHEMBL4837206, “Synthesis and biological evaluation of novel isoxazole-piperazine hybrids as potential anti-cancer agents with inhibitory effect on liver cancer stem cells” (Eur J Med Chem, 2021) are Activity and inhibition values, retold here.

Assay [1] relates to Huh-7. The assay is described as follows: Antiproliferative activity against human Huh-7 cells assessed as reduction in cell viability measured after 40 to 150 hrs by RT-CES analysis. It counts as functional, cell-based. The conditions noted are these: time 40-150 hrs.
In assay [2] the test system is SNU-475. The assay is described as follows: Antiproliferative activity against human SNU-475 cells assessed as reduction in cell viability measured after 40 to 130 hrs by RT-CES analysis. Format: functional, cell-based. The conditions noted are these: time 40-130 hrs.
In assay [3] the test system is Huh-7. The experiment in a line: Antiproliferative activity against human Huh-7 cells assessed as reduction in cell viability measured for 180 hrs by RT-CES analysis. Format: functional, cell-based. The conditions noted are these: dose 2.5-10 µM.
The subject of assay [4] is Mahlavu. The experiment in a line: Cell cycle arrest in human Mahlavu cells assessed as increase in accumulation of cells at G0/G1 phase at 5 uM measured after 48 hrs by propidium iodide staining based flow cytometric analysis. It counts as functional. (In general: In flow cytometry, cells or beads pass a laser one at a time.)
Assay [5] deals with SNU-475. The assay is described as follows: Cell cycle arrest in human SNU-475 cells assessed as increase in accumulation of cells at G2/M phase at 5 uM measured after 48 hrs by propidium iodide staining based flow cytometric analysis. It counts as functional.
The test system of assay [6] is Huh-7. The experiment in a line: Cell cycle arrest in human Huh-7 cells assessed as increase in accumulation of cells at G2/M phase at 5 uM measured after 48 hrs by propidium iodide staining based flow cytometric analysis. Format: functional.
Assay [7] has as its system Mahlavu. The assay is described as follows: Activation of p53 harboring G249T mutant in human Mahlavu cells assessed as upregulation of p53 phosphorylation at Ser15 residue at 5 uM incubated for 72 hrs by western blot analysis. The conditions noted are these: filed as activator. Format: cell-based. A general note: In western blotting, separated proteins are transferred to a membrane and probed.

The test system of assay [8] is SNU-475. The assay is described as follows: Activation of p53 harboring A239G/T275C/A288G mutant in human SNU-475 cells assessed as upregulation of p21 protein expression at 5 uM incubated for 72 hrs by western blot analysis. The conditions noted are these: filed as activator. Format: cell-based.
The target in assay [9] is T1, Serine/threonine-protein kinase AKT (Homo sapiens) (UniProt P31751+Q9Y243+P31749). The assay is described as follows: Inhibition of Akt phosphorylation at Ser473 residue in human Mahlavu cells at 5 uM measured after 72 hrs by Western blot analysis. It counts as cell-based.
T1 sequence (P31749 whole entry, looked up): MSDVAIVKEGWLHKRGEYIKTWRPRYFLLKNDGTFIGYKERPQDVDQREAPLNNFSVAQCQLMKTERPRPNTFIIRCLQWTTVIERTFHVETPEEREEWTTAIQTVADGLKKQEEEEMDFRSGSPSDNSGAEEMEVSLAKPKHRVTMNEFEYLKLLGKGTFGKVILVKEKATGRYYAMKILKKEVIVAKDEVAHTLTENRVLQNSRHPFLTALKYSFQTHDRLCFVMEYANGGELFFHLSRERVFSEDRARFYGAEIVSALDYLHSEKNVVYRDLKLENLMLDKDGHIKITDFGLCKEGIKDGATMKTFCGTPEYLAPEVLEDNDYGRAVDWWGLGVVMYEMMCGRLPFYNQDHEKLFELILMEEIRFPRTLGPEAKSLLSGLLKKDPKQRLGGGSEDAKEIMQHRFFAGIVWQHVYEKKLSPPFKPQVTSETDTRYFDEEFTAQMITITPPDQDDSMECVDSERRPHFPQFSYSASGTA
T1 sequence (P31751 whole entry, looked up): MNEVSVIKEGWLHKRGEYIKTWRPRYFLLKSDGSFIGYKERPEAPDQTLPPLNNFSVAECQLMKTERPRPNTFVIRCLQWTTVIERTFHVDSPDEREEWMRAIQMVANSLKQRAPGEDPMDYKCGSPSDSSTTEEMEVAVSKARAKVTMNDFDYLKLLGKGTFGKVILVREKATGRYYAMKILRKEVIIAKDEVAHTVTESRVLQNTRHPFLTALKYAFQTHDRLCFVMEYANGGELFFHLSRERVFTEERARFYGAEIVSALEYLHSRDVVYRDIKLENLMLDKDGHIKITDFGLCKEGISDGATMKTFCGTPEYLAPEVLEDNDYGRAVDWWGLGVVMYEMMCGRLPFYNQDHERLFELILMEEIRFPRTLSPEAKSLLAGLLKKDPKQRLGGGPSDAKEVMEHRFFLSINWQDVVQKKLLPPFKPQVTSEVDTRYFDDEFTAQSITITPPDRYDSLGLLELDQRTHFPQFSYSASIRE
T1 sequence (Q9Y243 whole entry, looked up): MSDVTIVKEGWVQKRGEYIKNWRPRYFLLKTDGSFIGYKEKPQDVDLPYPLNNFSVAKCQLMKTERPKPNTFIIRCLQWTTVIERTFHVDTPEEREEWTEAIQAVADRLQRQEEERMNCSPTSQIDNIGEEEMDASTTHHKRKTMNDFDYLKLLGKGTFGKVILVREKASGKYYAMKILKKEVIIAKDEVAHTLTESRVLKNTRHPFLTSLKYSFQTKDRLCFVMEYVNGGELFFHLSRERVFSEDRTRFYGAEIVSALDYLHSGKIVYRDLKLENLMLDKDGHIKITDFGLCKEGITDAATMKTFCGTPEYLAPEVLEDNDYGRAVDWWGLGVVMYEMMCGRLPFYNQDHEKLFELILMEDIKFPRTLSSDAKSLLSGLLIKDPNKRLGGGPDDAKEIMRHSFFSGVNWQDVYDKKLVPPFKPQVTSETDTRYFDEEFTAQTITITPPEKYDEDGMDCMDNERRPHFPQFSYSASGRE
For assay [10], the target named is T1, Serine/threonine-protein kinase AKT (Homo sapiens). The assay is described as follows: Inhibition of Akt phosphorylation at Ser473 residue in human Huh-7 cells at 5 uM measured after 72 hrs by Western blot analysis. It counts as cell-based.
The target is the same in assay [11]. The assay is described as follows: Inhibition of Akt phosphorylation at Ser473 residue in human HepG2 cells at 5 uM measured after 72 hrs by Western blot analysis. Format: cell-based.
Assay [12] is described as follows: Inhibition of PI3K/Akt/mTOR signaling in human Mahlavu cells assessed as downregulation of c-Myc protein expression at 5 uM measured after 72 hrs by Western blot analysis. It counts as cell-based.
Assay [13] has as its system Huh-7. The experiment in a line: Inhibition of cell stemness in human Huh-7 cells assessed as decrease in OCT4 mRNA level at 10 uM measured after 72 hrs by RT-qPCR analysis. Format: functional, cell-based. For orientation: Quantitative PCR measures a nucleic acid by following its amplification.
For assay [14], the system named is Mahlavu. The experiment in a line: Inhibition of cell stemness in human Mahlavu cells assessed as decrease in OCT4 level at 10 uM measured after 72 hrs by flow cytometry analysis. Format: functional, cell-based.
Assay [15] relates to Huh-7. The assay is described as follows: Inhibition of cell stemness in human Huh-7 cells assessed as reduction in size of tumor spheres at 10 uM incubated for 72 hrs followed by incubation in sphere formation medium for 7 days by microscopic analysis. Format: functional, cell-based. The conditions noted are these: time 10.0 day.
Assay [16] concerns Huh-7. The experiment in a line: Induction of apoptosis in human Huh-7 cells assessed as nuclear fragmentation measured after 48 hrs by Hoechst33258 staining based inverted fluorescent microscopic method. It counts as functional, cell-based.
A further assay deals with HepG2. The assay is described as follows: Induction of apoptosis in human HepG2 cells assessed as nuclear fragmentation measured after 48 hrs by Hoechst33258 staining based inverted fluorescent microscopic method. Format: functional, cell-based.
The target in assay [17] is T2, Mitogen-activated protein kinase; ERK1/ERK2 (Homo sapiens) (UniProt P27361+P28482). The assay is described as follows: Downregulation of ERK1/2 phosphorylation at T202/Y204 residue in human Huh-7 cells at 5 uM measured after 72 hrs by Western blot analysis. Format: cell-based.
T2 sequence (P27361 whole entry, looked up): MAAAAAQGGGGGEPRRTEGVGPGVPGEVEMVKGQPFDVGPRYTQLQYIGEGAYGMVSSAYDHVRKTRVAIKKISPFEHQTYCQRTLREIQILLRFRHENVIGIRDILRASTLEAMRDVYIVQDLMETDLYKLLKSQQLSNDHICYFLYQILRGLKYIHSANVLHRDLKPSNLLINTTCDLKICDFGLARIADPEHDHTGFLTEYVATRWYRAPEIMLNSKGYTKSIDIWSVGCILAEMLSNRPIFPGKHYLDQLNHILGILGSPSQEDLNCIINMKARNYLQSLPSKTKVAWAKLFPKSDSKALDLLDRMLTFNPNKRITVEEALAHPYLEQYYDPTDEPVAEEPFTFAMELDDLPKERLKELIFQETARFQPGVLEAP
T2 sequence (P28482 whole entry, looked up): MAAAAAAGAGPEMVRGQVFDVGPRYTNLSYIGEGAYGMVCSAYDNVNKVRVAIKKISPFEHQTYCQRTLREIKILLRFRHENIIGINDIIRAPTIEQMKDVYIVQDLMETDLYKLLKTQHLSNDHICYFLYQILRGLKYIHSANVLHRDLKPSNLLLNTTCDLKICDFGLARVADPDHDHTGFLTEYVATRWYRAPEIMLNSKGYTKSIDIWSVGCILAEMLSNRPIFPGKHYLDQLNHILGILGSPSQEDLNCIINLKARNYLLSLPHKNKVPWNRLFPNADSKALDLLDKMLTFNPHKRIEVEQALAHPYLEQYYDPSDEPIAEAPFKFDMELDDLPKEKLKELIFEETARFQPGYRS
For assay [18], the target named is T2, Mitogen-activated protein kinase; ERK1/ERK2 (Homo sapiens). The assay is described as follows: Downregulation of ERK1/2 phosphorylation at T202/Y204 residue in human HepG2 cells at 5 uM measured after 72 hrs by Western blot analysis. Format: cell-based.
For assay [19], the system named is Huh-7. The experiment in a line: Inhibition of cell stemness in human Huh-7 cells assessed as decrease in OCT4 level at 10 uM measured after 72 hrs by flow cytometry analysis. It counts as functional, cell-based.
Assay [20] relates to SNU-475. The assay is described as follows: Activation of p53 harboring A239G/T275C/A288G mutant in human SNU-475 cells assessed as upregulation of p53 acetylation at Lys382 residue at 5 uM incubated for 72 hrs by western blot analysis. It counts as cell-based. The conditions noted are these: filed as activator.
The target in assay [21] is T1, Serine/threonine-protein kinase AKT (Homo sapiens). The assay is described as follows: Inhibition of Akt phosphorylation at Ser473 residue in human SNU-475 cells at 5 uM measured after 72 hrs by Western blot analysis. It counts as cell-based.
Assay [22] has as its system Mahlavu. The experiment in a line: Inhibition of cell stemness in human Mahlavu cells assessed as decrease in NANOG mRNA level at 10 uM measured after 72 hrs by RT-qPCR analysis. It counts as functional, cell-based.

Active and inactive are the calls of the source. The calls are words filed in the database; no cut-off is given here.

`FC(F)(F)c1ccc(CN2CCN(Cc3cc(-c4ccc(OCc5ccccc5)cc4)on3)CC2)cc1`: the result with Huh-7 [1], in the assay with SNU-475 [2], with Mahlavu [4], with SNU-475 [5], in the assay with Huh-7 [6] and in the assay with Mahlavu [7] was Active. Further, the outcome with SNU-475 [8], in the assay on Huh-7 [16] and in the assay with HepG2 was Active. For the same compound, the Activity result in the assay on Huh-7 [3] was “Dose-Dependent Effect”. The inhibition result (in assay [9]; in assay [12]; in the assay with Huh-7 [13]; in the assay on Mahlavu [14]; in the assay on Huh-7 [15]; in assay [17]) was “Active” throughout. In assay [18], the inhibition result is “Active”. Moreover, the inhibition result (in assay [10]; in assay [11]; with Huh-7 [19]) was “inactive” in each case.

As to `N#Cc1cccc(COc2ccc(-c3cc(CN4CCN(Cc5ccc(C(F)(F)F)cc5)CC4)no3)cc2F)c1`, the outcome with Huh-7 [1], with SNU-475 [2], with Mahlavu [4], in the assay with SNU-475 [5], in the assay on Huh-7 [6] and with SNU-475 [20] was Active. Besides, the outcome in the assay with SNU-475 [8], in the assay with Huh-7 [16] and in the assay with HepG2 was Active. Also, the Activity entry in the assay on Huh-7 [3] was “Dose-Dependent Effect”. In addition, the inhibition entry (in assay [9]; in assay [21]; in assay [12]; in the assay on Mahlavu [22]; in the assay on Huh-7 [13]; with Mahlavu [14]) was “Active” throughout. The inhibition result (in the assay on Huh-7 [15]; in [17]; in assay [18]) was “Active” throughout. The inhibition entry (in [10]; in assay [11]; in the assay on Huh-7 [19]) was “inactive” in each case.
